# Where a name gives a salt, the structure may show the parent alone.
# Columns and labels:
# Format in all cases: physicochemical
# [1] = Controlled temperature (isothermal) X-ray powder diffraction: thermal stability of the crystalline form; conditions: dry nitrogen; for form conversion as the temperature is raised (isothermal XRPD): ambient to 210° C.
# Method: X-ray powder diffraction (XRPD) is performed on various samples of the Citrate Salt using one of three instruments. XRPD measurements with Instrument 1 utilize a Siemens-Bruker D5000 Matic powder diffractometer with a Bragg-Brentano (vertical θ-2θ configuration) parafocusing geometry. X-rays are produced from a sealed cobalt anode running at 40 kV and 30 mA. Two lines are typically emitted: CoKα1 (λ=1.7890 Å) and CoKα2 (λ=1.7929 Å). An iron β-filter limits the CoKβ (λ=1.6208 Å) radiation to about 1% of the diffracted beam at the detector. The primary beam passes through a parallel plate collimator (0.2 mm Soller slits), then through a divergence slit (0.2 mm). Diffracted X-rays are detected with a Braun 50 M multichannel linear detector having a 10°-wide detection window in angle 2θ. Scans are performed from 1.5° to 50.0° in 2θ, the scan time being 10 to 40 seconds per degree in 2θ. The error in the 2θ locations are typically within ±0.10 degrees.
# In Instrument 3, XRPD measurements are performed at different temperatures to elucidate the evolution of crystal structure with temperature. Tests are carried out with a Siemens-Bruker D5000 diffractometer equipped with the Bragg Brentano parafocusing (θ-θ) geometry and an Anton-Paar TTK temperature chamber. Measurements utilize dry nitrogen or nitrogen streams having a particular humidity. The instrument specifications are substantially similar to the Siemens-Bruker D5000 Matic instrument described above (Instrument 1). Temperature is allowed to rise at a rate of 0.05° C./sec. Scans are recorded under the following conditions: a 1.5 to 50.0 degree scan in angle 2θ, 10 to 20 seconds counting time per degree in 2θ. Data are acquired in isotherm mode when the requested temperature is reached.
# [2] = Differential scanning calorimetry (DSC)
# Method: Differential scanning calorimetry (DSC) analyses are performed using a T.A Instruments Q1000 thermal analyser. Analyses are carried out using nitrogen purge gas flowing at an average rate of 50 ml/min. A mechanical compressor cools the system, and equilibrates the instruments being used at ambient temperature between analyses. […] Energy calibration is performed with a certified indium calibrator (melting enthalpy of 28.45 J/g), applying a heating rate of 5° C./min. The temperatures identified from DSC scans of a particular sample are accurate to within ±3° C. […] Modulated temperature differential scanning calorimetry (MTDSC) is also used since deconvolution of the total heat flow into reversing and non-reversing heat flows allows the transitions to be easily identified. The samples were submitted to the same experimental temperature program: after the equilibration of the sample at −5° C., the samples were heated through a modulated program from −5° C. to 210° C. at a rate of 1° C./min. […] Experiments are performed using crimped aluminium sample pans or open pans in some cases. The quantity of product analysed is typically between 2 and 13 mg.
# [3] = Water sorption/desorption cycling (dynamic vapor sorption, DVS) at 25° C., with XRPD before and after; conditions: for XRPD before and after water sorption/desorption cycling: two consecutive cycles, 0% to 90% relative humidity
# Method: Water sorption measurements are performed on a DVS-1 automated gravimetric vapor sorption analyser (Surface Measurement Systems Ltd., London, UK). The DVS-1 measures the uptake and loss of vapor gravimetrically using a Cahn D200 recording ultra-microbalance with a mass resolution of ±0.1 μg. The relative humidity around the sample is controlled by mixing saturated and dry carrier gas streams using mass flow controllers. The temperature is maintained within ±0.1° C. by enclosing the entire system in a temperature-controlled incubator. A sample size between 15 and 20 mg is used. In general, the error in % (w/w) identified in a tested sample is ±0.1% (w/w).
# Two protocols are utilized to operate the DVS. In one protocol, a sample is dried at 0% relative humidity (RH) to remove any surface water present and establish a dry, baseline mass. Next, the sample is exposed to the following relative humidity profile: 0%, 10%, 20%, 30%, 40%, 50%, 60%, 70%, 80%, 90%, 80%, 70%, 60%, 50%, 40%, 30%, 20%, 10%, 0%. In some instances, this profile is repeated, yielding 4 sets of data going up and down in RH. In another protocol, the sample is first equilibrated at 40% RH, then it was exposed to the following relative humidity profile: 40%, 50%, 60%, 70%, 80%, 90%, 100%, 90%, 80%, 70%, 60%, 50% 40% 30%, 20% 10%, 0%, 10%, 20%, 30%, 40%. […] If equilibrium state is not reached, the change in relative humidity took place automatically after 360 or 600 minutes. From the complete moisture sorption and desorption profile, an isotherm is calculated using the DVS Advanced Analysis Suite v3.6. All experiments were performed at 25° C.
# [4] = Thermal gravimetric analysis (TGA); conditions: for TGA weight loss of the transition / TGA weight loss transition, interpolated beginning temperature / TGA weight loss transition, temperature of maximum rate of weight loss: sample of the single form (Form H formed from Form E sample); for TGA weight loss transition, interpolated beginning temperature / TGA weight loss transition, temperature of maximum rate of weight loss: ±3° C.
# Method: Measurements utilizing thermal gravimetric analysis (TGA) are carried out on a T.A. instruments TGAQ500 analyzer. Mass calibration is performed with 10 and 100 mg certified masses. Temperature calibration is performed with Alumel® and nickel standards (Curie points of respectively 154° C. and 354° C.). Samples are exposed to a constant nitrogen stream of 60 ml/min, and temperature ranges from room temperature to 350° C. at a 5° C./min rate. The quantity of product tested is between 2 and 13 mg. The sample is deposited in an open aluminum sample pan, which is itself placed in a platinum pan. The temperatures identified from TGA scans of a particular sample are accurate to within ±3° C. Simultaneous TGA and DSC measurements are carried out using a […] thermal analysis system produced by the […] corporation. A liquid nitrogen cooling system makes it possible to work at temperatures below 20° C. The emitted gases, upon sample heating, are carried by a transfer capillary tube to a Pfeiffer mass spectrometer, the capillary tube heated to 150° C. The mass spectrometer can analyze molecular fragments at <<m/e>> ratios between 1 and 200 uma. A sample with a mass between 1 and 27 mg is contained in an open concave aluminum sample pan (75 μL capacity) exposed to a nitrogen stream. The sample is heated at a rate of 1 or 5° C./min.
# [5] = Prolonged exposure to fixed relative humidity or rinsing with water, XRPD before and after; conditions: for crystal form by XRPD after exposure to a relative humidity of 97.5%: month long exposure, ambient temperature
# [6] = Crystallization of the Citrate Salt (Form A exposed to solvent systems under the conditions of Table 9): form(s) obtained
# Text: In other particular embodiments, solvents such as ethanol, methanol/heptane, MEK/water, n-propanol, isopropanol, isopropanol/water, acetonitrile/water, or methanol may be used to crystallize Form B. More particularly, Form B may be created by taking samples of Form A and exposing them to one of the solvent systems listed above. […] In each instance, Form A of the Citrate Salt is exposed to a solvent or solvent system under the particular conditions listed in Table 9 to generate the particular form(s) or amorphous Citrate Salt.
# [7] = sample including Forms A and C, 5° C./min, Form C: conversion to Form A, Form A: melting/decomposition
# [8] = heating rate 5° C./min, A, B, H: melting/decomposition, E: loss of water and conversion to Form H, ±3° C.
compound,measurement,setting,value
"CC(C)(O)c1ccc2c(c1)/C(=C/CCN1CC[C@](O)(c3ccc(Cl)cc3)C(C)(C)C1)c1cccnc1CO2 [Form C, citrate salt of (S)-4-(4-Chloro-phenyl)-1-{3-[7-(1-hydroxy-1-methyl-ethyl)-11H-10-oxa-1-aza-dibenzo[a,d]cyclohepten-5-ylidene]-propyl}-3,3-dimethyl-piperidin-4-ol]",form conversion as the temperature is raised (isothermal XRPD),[1],conversion of the Form C crystals to Form A
same,"DSC endothermic transition between Form C and Form A, Tmax",[2]; heating rate 20° C./min,171 °C
same,"DSC endothermic transition between Form C and Form A, interpolated beginning temperature",[2]; heating rate 20° C./min,165 °C
same,"DSC endothermic transition, Tmax",[2]; [7],166 °C
same,"DSC endothermic transition, interpolated beginning temperature",[2]; [7],about 161 °C
same,XRPD before and after water sorption/desorption cycling,[3]; 25° C.,no structural modification
same,TGA weight loss,[4]; sample including Forms A and C,about 8.22 % (w/w)
same,"TGA weight loss, temperature of maximum rate of weight loss",[4]; sample including Forms A and C,162 °C
same,"TGA weight loss, interpolated beginning temperature","[4]; sample including Forms A and C, Form C: conversion away from Form C, Form A: decomposition/melting",157 °C
"CC(C)(O)c1ccc2c(c1)/C(=C/CCN1CC[C@](O)(c3ccc(Cl)cc3)C(C)(C)C1)c1cccnc1CO2 [Form B, citrate salt of (S)-4-(4-Chloro-phenyl)-1-{3-[7-(1-hydroxy-1-methyl-ethyl)-11H-10-oxa-1-aza-dibenzo[a,d]cyclohepten-5-ylidene]-propyl}-3,3-dimethyl-piperidin-4-ol]","stability when rinsed with water, XRPD before and after the rinsing",[5],stable to 100% relative humidity
same,crystal form by XRPD after exposure to a relative humidity of 97.5%,[5],does not change form
same,"DSC endothermic transition, Tmax",[2]; heating rate 1° C./min,179 °C
same,"DSC endothermic transition, interpolated beginning temperature",[2]; heating rate 1° C./min,174 °C
same,"DSC endothermic transition, Tmax",[2]; [8],189 °C
same,"DSC endothermic transition, interpolated beginning temperature",[2]; [8],184 °C
same,change in moles of water per mole of anhydrous crystal over relative humidity 0% to 90%,[3]; 25° C.,about 0.4 moles of water per mole of anhydrous crystal
same,change in mass as the relative humidity is changed between 0% and 90%,"[3]; 25° C., dry crystal basis, known to within ±0.1%",about 0.9%
same,XRPD before and after water sorption/desorption cycling,[3]; 25° C.,no structural change
same,TGA weight loss from ambient temperature to about 100° C.,[4]; heating rate 5° C./min,No weight loss is detected
same,TGA weight loss of the transition,[4]; heating rate 5° C./min,about 27.5 % (w/w)
same,"TGA weight loss transition, interpolated beginning temperature",[4]; heating rate 5° C./min,about 180 °C
same,"TGA weight loss transition, temperature of maximum rate of weight loss",[4]; heating rate 5° C./min,192 °C
"CC(C)(O)c1ccc2c(c1)/C(=C/CCN1CC[C@](O)(c3ccc(Cl)cc3)C(C)(C)C1)c1cccnc1CO2 [Form E, citrate salt of (S)-4-(4-Chloro-phenyl)-1-{3-[7-(1-hydroxy-1-methyl-ethyl)-11H-10-oxa-1-aza-dibenzo[a,d]cyclohepten-5-ylidene]-propyl}-3,3-dimethyl-piperidin-4-ol]",form conversion as the temperature is raised (isothermal XRPD),[1],converts to Form B
same,"loss of stability (lines unique to the form disappear), isothermal XRPD","[1]; sample containing Forms E, F, and G, steps of 10° C.",above 50 °C
same,"DSC endothermic transition, Tmax",[2]; [8],67 °C
same,"DSC endothermic transition, interpolated beginning temperature",[2]; [8],45 °C
same,"DSC endothermic transition, integrated enthalpy change","[2]; heating rate 5° C./min, transition 2411, conversion of Form E to Form H",178.3 J/g
same,weight change / water uptake between 10% and 90% relative humidity,[3]; 25° C.,about 2.28 % (w/w)
same,weight gain / water uptake as relative humidity is increased from 0% to 10%,[3]; 25° C.,about 5.13 % (w/w)
same,behaviour under 10% relative humidity (observed at 0% relative humidity),[3]; ambient temperatures,fully transforms into form H
same,XRPD before and after water sorption/desorption cycling,[3]; 25° C.,a structure corresponding with Form H after the cycling
same,TGA weight loss of the transition,[4]; heating rate 5° C./min,6.14 % (w/w)
same,"TGA weight loss transition, interpolated beginning temperature",[4]; heating rate 5° C./min,52 °C
same,"TGA weight loss transition, temperature of maximum rate of weight loss",[4]; heating rate 5° C./min,64 °C
CC(C)(O)c1ccc2c(c1)/C(=C/CCN1CC[C@](O)(c3ccc(Cl)cc3)C(C)(C)C1)c1cccnc1CO2 [batch F1],"stability when rinsed with water, XRPD before and after the rinsing",[5],"loss of lines of Form F and diminution of lines of Form G, while the lines of Form E grow"
same,crystal form by XRPD after exposure to a relative humidity of 0%,[5]; about one month,a mixture of Forms E and B
same,crystal form by XRPD after exposure to a relative humidity of 97.5%,[5],"loss of lines of Form F and diminution of lines of Form G, while the lines of Form E grow"
"CC(C)(O)c1ccc2c(c1)/C(=C/CCN1CC[C@](O)(c3ccc(Cl)cc3)C(C)(C)C1)c1cccnc1CO2 [Citrate Salt, citrate salt of (S)-4-(4-Chloro-phenyl)-1-{3-[7-(1-hydroxy-1-methyl-ethyl)-11H-10-oxa-1-aza-dibenzo[a,d]cyclohepten-5-ylidene]-propyl}-3,3-dimethyl-piperidin-4-ol]",Form(s) identified,"[6]; Crystallization after dissolution THF, followed by a slow evaporation at ambient temperature and atmospheric pressure",A + D
same,Form(s) identified,[6]; Crystallization after dissolution at high temperature in THF/water,A + C
same,Form(s) identified,[6]; Dissolution at ambient temperature in DMSO/water,Amorphous
same,Form(s) identified,[6]; Dissolution in THF/water and azeotropic distillation (isolation in water),Amorphous
same,Form(s) identified,"[6]; Dissolution in dichloromethane/methanol, followed by a quick evaporation at ambient temperature and low pressure",Amorphous
same,Form(s) identified,[6]; Maturation in THF of Forms A and B at ambient temperature,A + C
same,Form(s) identified,[6]; Maturation in water of the amorphous form at ambient temperature,E + F + G
